# From US6890736B1, “Methods for producing proteins in cultured cells” (Immunex Corporation, priority 2002, dated 2005)
# Values joined by “and” are separate entries in the source; they are usually repeats but may differ in a detail not shown here. Identical values can stand only once.
# Test system: cell line 25H9 (CHO cells that produce IL-1R-II protein)
# Assay: Example 2: optimization of temperature and decitabine concentration, IL-1R-II production
# Format: cell-based, Chinese hamster
# Description: About 2×10^6 cells of cell line 25H9 were inoculated into 30 milliliters of serum-free medium and incubated at the temperatures indicated in Table 1 in vented shake flasks. At the times indicated in Table 1, samples were taken from each flask to determine IL-1R-II titer, cell number, and cell viability. IL-1R-II protein titer was determined by ELISA assay. Cell number was determined by counting cells in a hemocytometer. Cell viability was determined by trypan blue staining and counting stained cells in a hemocytometer. Cumulative viable cell density (CVCD) is the area under the curve of a plot of the viable cell density versus time (in units of cells/ml/day). Productivity (pg of IL-1R-II/cell/day) was determined by dividing the protein titer on a particular day by the CVCD on the same day. Cells were fed with amino acids on days 2 and 5, and dextrose was added periodically in order to maintain levels above 2.0 g/L. All samples were done in duplicate, and the data shown is an average value.
# To determine an optimum temperature and decitabine concentration, three temperatures (30° C., 31° C., and 32° C.) and three decitabine concentrations (10 μM, 15 μM, and 20 μM) were tested. A 31° C. culture containing 0.5 mM sodium butyrate was grown as a control. […] See e.g. International Application Nos. WO 89/06686 and WO 87/05626. The experiment was performed as in Example 1 except that the inducer concentrations, temperatures, and days at which data was collected are as indicated in Table 2 and FIG. 1.
# [1] = 30° C., 10 μM decitabine, day 6
# [2] = 30° C., 10 μM decitabine, day 8
# [3] = 30° C., 15 μM decitabine, day 3
# [4] = 30° C., 15 μM decitabine, day 6
# [5] = 30° C., 20 μM decitabine, day 3
# [6] = 30° C., 20 μM decitabine, day 6
# [7] = 30° C., 20 μM decitabine, day 8
# [8] = 31° C., 10 μM decitabine, day 3
# [9] = 31° C., 10 μM decitabine, day 6
# [10] = 31° C., 10 μM decitabine, day 8
# [11] = 31° C., 15 μM decitabine, day 3
# [12] = 31° C., 15 μM decitabine, day 6
# [13] = 31° C., 15 μM decitabine, day 8
# [14] = 31° C., 20 μM decitabine, day 3
# [15] = 31° C., 20 μM decitabine, day 6
# [16] = 31° C., 20 μM decitabine, day 8
# [17] = 32° C., 10 μM decitabine, day 3
# [18] = 32° C., 10 μM decitabine, day 6
# [19] = 32° C., 10 μM decitabine, day 8
# [20] = 32° C., 15 μM decitabine, day 3
# [21] = 32° C., 15 μM decitabine, day 6
# [22] = 32° C., 20 μM decitabine, day 3
# [23] = 32° C., 20 μM decitabine, day 6
# [24] = 32° C., 20 μM decitabine, day 8
structure (smiles),measurement,setting,value
"Nc1ncn([C@H]2C[C@H](O)[C@@H](CO)O2)c(=O)n1 [decitabine, 5-aza-2′-deoxycytidine]",Productivity,"30° C., 10 μM decitabine, day 3",9.2 pg IL-1R-II/cell/day
same,IL1R-II Titer,[1],156.5 µg/mL
same,Productivity,[1],10.9 pg IL-1R-II/cell/day
same,IL1R-II Titer,[2],260.5 µg/mL
same,Productivity,[2],14.4 pg IL-1R-II/cell/day
same,IL1R-II Titer,"30° C., 15 μM decitabine, day 0",0.0 µg/mL
same,IL1R-II Titer,[3],77.2 µg/mL
same,Productivity,[3],11.3 pg IL-1R-II/cell/day
same,IL1R-II Titer,[4],173.0 µg/mL
same,Productivity,[4],12.4 pg IL-1R-II/cell/day
same,IL1R-II Titer,"30° C., 15 μM decitabine, day 8",283.0 µg/mL
same,IL1R-II Titer,"30° C., 20 μM decitabine, day 0",0.0 µg/mL
same,IL1R-II Titer,[5],83.6 µg/mL
same,Productivity,[5],10.6 pg IL-1R-II/cell/day
same,IL1R-II Titer,[6],219.0 µg/mL
same,Productivity,[6],13.4 pg IL-1R-II/cell/day
same,IL1R-II Titer,[7],346.0 µg/mL
same,Productivity,[7],16.9 pg IL-1R-II/cell/day
same,IL-1R-II titer versus culture containing 0.5 mM sodium butyrate,"31° C., 10 μM decitabine, 8 days",higher titer
same,IL1R-II Titer,"31° C., 10 μM decitabine, day 0",0.0 µg/mL
same,IL1R-II Titer,[8],164.0 µg/mL
same,Productivity,[8],18.8 pg IL-1R-II/cell/day
same,IL1R-II Titer,[9],448.5 µg/mL
same,Productivity,[9],21.3 pg IL-1R-II/cell/day
same,IL1R-II Titer,[10],1087 µg/mL and 1087.0 µg/mL
same,Productivity,[10],38.1 pg IL-1R-II/cell/day
same,IL1R-II Titer,"31° C., 15 μM decitabine, day 0",0.0 µg/mL
same,IL1R-II Titer,[11],174.0 µg/mL
same,Productivity,[11],22.0 pg IL-1R-II/cell/day
same,IL1R-II Titer,[12],440.0 µg/mL
same,Productivity,[12],22.9 pg IL-1R-II/cell/day
same,IL1R-II Titer,[13],718.0 µg/mL
same,Productivity,[13],27.8 pg IL-1R-II/cell/day
same,IL1R-II Titer,"31° C., 20 μM decitabine, day 0",0.0 µg/mL
same,IL1R-II Titer,[14],162.0 µg/mL
same,Productivity,[14],17.6 pg IL-1R-II/cell/day
same,IL1R-II Titer,[15],426.0 µg/mL
same,Productivity,[15],19.6 pg IL-1R-II/cell/day
same,IL1R-II Titer,[16],774.5 µg/mL
same,Productivity,[16],27.1 pg IL-1R-II/cell/day
same,productivity on a per cell basis versus control culture grown in butyrate,"31° C., all cultures grown in decitabine","comparable to, and in some cases greater than"
same,IL-1R-II produced in 10 μM versus 15 μM or 20 μM decitabine,32° C.,produced more IL-1R-II
same,IL1R-II Titer,"32° C., 10 μM decitabine, day 0",0.0 µg/mL
same,IL1R-II Titer,[17],186.0 µg/mL
same,Productivity,[17],23.1 pg IL-1R-II/cell/day
same,IL1R-II Titer,[18],407.0 µg/mL
same,Productivity,[18],21.5 pg IL-1R-II/cell/day
same,IL1R-II Titer,[19],610.5 µg/mL
same,Productivity,[19],24.5 pg IL-1R-II/cell/day
same,IL1R-II Titer,"32° C., 15 μM decitabine, day 0",0.0 µg/mL
same,IL1R-II Titer,[20],189.0 µg/mL
same,Productivity,[20],23.5 pg IL-1R-II/cell/day
same,IL1R-II Titer,[21],410.0 µg/mL
same,Productivity,[21],22.5 pg IL-1R-II/cell/day
same,IL1R-II Titer,"32° C., 15 μM decitabine, day 8",478.0 µg/mL
same,IL1R-II Titer,"32° C., 20 μM decitabine, day 0",0.0 µg/mL
same,IL1R-II Titer,[22],184.5 µg/mL
same,Productivity,[22],22.2 pg IL-1R-II/cell/day
same,IL1R-II Titer,[23],492.0 µg/mL
same,Productivity,[23],26.3 pg IL-1R-II/cell/day
same,IL1R-II Titer,[24],488.5 µg/mL
same,Productivity,[24],20.7 pg IL-1R-II/cell/day
